The results in this text go back to the supplement of paper PMC8149375.

The subject of assay [1] is TK-10. Kind of assay: AUC of dose-response viability curve, drug + dasatinib, normalised to DMSO (arbitrary (AUC of normalised viability)); higher = less growth inhibition. Particulars: treatment: drug + dasatinib (fixed dose, not stated); 5 days. On the procedure:
(§1)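 Primary HTS combination arm: 8 RCC cell lines treated with 8 doses (up to 10 uM) of each library drug plus a fixed dose of dasatinib (dose not stated) for 5 days; viability read by CellTiter-Glo and normalised to DMSO. GI50 was fitted with XLfit, AUC is the area under the dose-response curve, and minimum viability is the lowest fraction of DMSO viability across doses.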

The test system of assay [2] is ACHN. The description is as above. Particulars: treatment: drug + dasatinib (fixed dose, not stated); 5 days. On the procedure:
as §1

The test system of assay [3] is SN12C. The description is as above. Particulars: treatment: drug + dasatinib (fixed dose, not stated); 5 days. On the procedure:
as §1

Assay [4] deals with A498. The description is as above. Particulars: treatment: drug + dasatinib (fixed dose, not stated); 5 days. On the procedure:
as §1

The subject of assay [5] is 786-O. The description is as above. Particulars: treatment: drug + dasatinib (fixed dose, not stated); 5 days. On the procedure: as §1
For assay [6], the system named is 769-P. The assay is described as above. The note with it: treatment: drug + dasatinib (fixed dose, not stated); 5 days. On the procedure: as §1
Assay [7] relates to UO-31. The assay is described as above. The note with it: treatment: drug + dasatinib (fixed dose, not stated); 5 days. On the procedure:
as §1

In assay [8] the test system is CAKI-1. Described as above. Particulars: treatment: drug + dasatinib (fixed dose, not stated); 5 days. On the procedure: as §1
Assay [9] has as its system TK-10. Put plainly: minimum viability across doses, drug + dasatinib, relative to DMSO (fraction); higher = less growth inhibition. Particulars: treatment: drug + dasatinib (fixed dose, not stated); 5 days. On the procedure:
as §1

Assay [10] has as its system ACHN. Described as above. Particulars: treatment: drug + dasatinib (fixed dose, not stated); 5 days. On the procedure: as §1
Assay [11] relates to SN12C. Described as above. The note with it: treatment: drug + dasatinib (fixed dose, not stated); 5 days. On the procedure:
as §1

Assay [12] has as its system A498. The description is as above. The note with it: treatment: drug + dasatinib (fixed dose, not stated); 5 days. On the procedure: as §1
The subject of assay [13] is 786-O. Described as above. The note with it: treatment: drug + dasatinib (fixed dose, not stated); 5 days. On the procedure: as §1
The test system of assay [14] is 769-P. Described as above. Particulars: treatment: drug + dasatinib (fixed dose, not stated); 5 days. On the procedure: as §1
Assay [15] concerns UO-31. The assay is described as above. The note with it: treatment: drug + dasatinib (fixed dose, not stated); 5 days. On the procedure:
as §1

Assay [16] relates to CAKI-1. Described as above. The note with it: treatment: drug + dasatinib (fixed dose, not stated); 5 days. On the procedure:
as §1

In assay [17] the test system is TK-10. Kind of assay: GI50 of drug in presence of dasatinib; higher = less potent. The note with it: treatment: drug + dasatinib (fixed dose, not stated); 5 days. On the procedure: as §1
In assay [18] the test system is SN12C. The description is as above. The note with it: treatment: drug + dasatinib (fixed dose, not stated); 5 days. On the procedure:
as §1

For assay [19], the system named is A498. Described as above. The note with it: treatment: drug + dasatinib (fixed dose, not stated); 5 days. On the procedure: as §1
Assay [20] concerns UO-31. The assay is described as above. The note with it: treatment: drug + dasatinib (fixed dose, not stated); 5 days. On the procedure: as §1
The subject of assay [21] is CAKI-1. Described as above. Particulars: treatment: drug + dasatinib (fixed dose, not stated); 5 days. On the procedure:
as §1

Assay [22] deals with TK-10. Put plainly: AUC of dose-response viability curve, drug alone (arbitrary (AUC of normalised viability)); higher = less growth inhibition. The note with it: treatment: drug alone; 5 days. On the procedure: (§2)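 Primary HTS: 8 RCC cell lines treated with 8 doses (up to 10 uM) of each library drug alone for 5 days; viability read by CellTiter-Glo and normalised to DMSO. GI50 was fitted with XLfit (4-parameter), AUC is the area under the dose-response curve, and minimum viability is the lowest fraction of DMSO viability across doses.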

Assay [23] concerns ACHN. The description is as above. Particulars: treatment: drug alone; 5 days. On the procedure: as §2
For assay [24], the system named is SN12C. The assay is described as above. Particulars: treatment: drug alone; 5 days. On the procedure: as §2
Assay [25] concerns A498. Described as above. The note with it: treatment: drug alone; 5 days. On the procedure:
as §2

Assay [26] concerns 786-O. The description is as above. The note with it: treatment: drug alone; 5 days. On the procedure:
as §2

The subject of assay [27] is 769-P. The description is as above. The note with it: treatment: drug alone; 5 days. On the procedure:
as §2

The subject of assay [28] is UO-31. Described as above. Particulars: treatment: drug alone; 5 days. On the procedure: as §2
Assay [29] deals with CAKI-1. Described as above. The note with it: treatment: drug alone; 5 days. On the procedure: as §2
Assay [30] relates to TK-10. Kind of assay: minimum viability across doses, drug alone, relative to DMSO (fraction); higher = less growth inhibition. Particulars: treatment: drug alone; 5 days. On the procedure: as §2
Assay [31] has as its system ACHN. The assay is described as above. Particulars: treatment: drug alone; 5 days. On the procedure: as §2
Assay [32] relates to SN12C. The description is as above. Particulars: treatment: drug alone; 5 days. On the procedure:
as §2

Assay [33] relates to A498. The assay is described as above. Particulars: treatment: drug alone; 5 days. On the procedure: as §2
Assay [34] has as its system 786-O. Described as above. The note with it: treatment: drug alone; 5 days. On the procedure: as §2
Assay [35] deals with 769-P. Described as above. The note with it: treatment: drug alone; 5 days. On the procedure:
as §2

Assay [36] deals with UO-31. The description is as above. Particulars: treatment: drug alone; 5 days. On the procedure: as §2
Assay [37] deals with CAKI-1. The description is as above. The note with it: treatment: drug alone; 5 days. On the procedure: as §2
Assay [38] concerns TK-10. Kind of assay: GI50, drug alone; higher = less potent. The note with it: treatment: drug alone; 5 days. On the procedure:
as §2

For assay [39], the system named is ACHN. Kind of assay: GI50, drug alone; higher = less potent. The note with it: treatment: drug alone; 5 days. On the procedure: as §2
Assay [40] concerns SN12C. Kind of assay: GI50, drug alone; higher = less potent. The note with it: treatment: drug alone; 5 days. On the procedure: as §2
In assay [41] the test system is A498. Put plainly: GI50, drug alone; higher = less potent. The note with it: treatment: drug alone; 5 days. On the procedure: as §2
In assay [42] the test system is 786-O. Kind of assay: GI50, drug alone; higher = less potent. Particulars: treatment: drug alone; 5 days. On the procedure:
as §2

For assay [43], the system named is 769-P. Put plainly: GI50, drug alone; higher = less potent. Particulars: treatment: drug alone; 5 days. On the procedure: as §2
Assay [44] relates to UO-31. Put plainly: GI50, drug alone; higher = less potent. Particulars: treatment: drug alone; 5 days. On the procedure:
as §2

In assay [45] the test system is CAKI-1. Kind of assay: GI50, drug alone; higher = less potent. Particulars: treatment: drug alone; 5 days. On the procedure:
as §2

Regarding `Cc1cc(C(C)Nc2ccccc2)c2nc(N3CCOCC3)cc(=O)n2c1` (stereo not given) [TGX-221] + Cc1nc(Nc2ncc(C(=O)Nc3c(C)cccc3Cl)s2)cc(N2CCN(CCO)CC2)n1 [dasatinib], the “AUC of dose-response viability curve” value in the assay with TK-10 [1] turned out to be 2.35; in the assay on ACHN [2], 1.82; with SN12C [3], 2.4; in the assay with A498 [4] it was 3.6; in the assay with 786-O [5], 2.04; in the assay with 769-P [6], 2.01. For the same compound, the “AUC of dose-response viability curve” value in the assay with UO-31 [7] stood at 3.16; with CAKI-1 [8], 1.83. For the same compound, the “minimum viability across doses” value in the assay on TK-10 [9] worked out at 0.554; in the assay on ACHN [10], 0.424; with SN12C [11], 0.624; with A498 [12], 0.949; in the assay with 786-O [13] it was 0.299; in the assay with 769-P [14], 0.346. The “minimum viability across doses” value is 0.349 in the assay with UO-31 [15] and 0.281 with CAKI-1 [16]. The GI50 of drug with TK-10 [17] was over 10 µM; in the assay with SN12C [18], over 10 µM; in the assay on A498 [19], over 10 µM; in the assay with UO-31 [20], 4.86 µM; in the assay with CAKI-1 [21] it was 0.231 µM.

Turning to `COC(=O)Nc1ccc(-c2nc(N3CCOCC3)c3cnn(C4CCN(C(=O)OC)CC4)c3n2)cc1` [WYE-354], the “AUC of dose-response viability curve” value in the assay on TK-10 [22] was 2.35; in the assay on ACHN [23] it was 2.21; with SN12C [24] it was 2.54; in the assay on A498 [25] it was 3.73; in the assay on 786-O [26] it was 1.9; in the assay with 769-P [27] it was 2.75. The entries for the “AUC of dose-response viability curve” value in the assay with UO-31 [28] and with CAKI-1 [29] were 3.63 and 2.49, respectively. In addition, the “minimum viability across doses” value worked out at 0.293 in the assay with TK-10 [30]; 0.167 with ACHN [31]; 0.274 in the assay on SN12C [32]; 0.409 in the assay on A498 [33]; 0.346 with 786-O [34]; 0.165 in the assay on 769-P [35]. Further, the entries for the “minimum viability across doses” value in the assay on UO-31 [36] and with CAKI-1 [37] were 0.0127 and 0.127, respectively. The “GI50, drug alone” value in the assay on TK-10 [38] was found to be 1.57 µM; with ACHN [39], 0.611 µM; with SN12C [40], 1.89 µM; in the assay with A498 [41], 6.59 µM; in the assay on 786-O [42], 0.476 µM; with 769-P [43], 2.27 µM. In addition, the “GI50, drug alone” value in the assay on UO-31 [44] worked out at 2.57 µM; in the assay with CAKI-1 [45], 1.26 µM.
